According to patent publication US9849189B2, “Targeted delivery of antimicrobial agents” (George Mason Research Foundation, Inc., priority 2008, dated 2017):
Like-named read-outs stand apart in the source and are kept apart here. No end group written: not given here.

Columns and labels:
K12 E. coli = format: cell-based
Procedure: The antimicrobial activities of the peptides and their acetylated derivatives may be assessed using K-12 E. coli and assays based on an existing protocol used to study derivatives of hBD-3. The bacteria may be grown to mid-log phase in Luria Bertani (LB) broth. Aliquots of the culture may then be diluted (to a cell density of about 10^6 CFU/ml) into 10 mM sodium phosphate at a pH of about 7.5. Each of the aliquots may contain varied concentrations of peptide or acetylated peptide. The diluted bacterial cultures may then be incubated for about 2 hours at a temperature of about 37° C. After the proscribed time, serial dilutions of the assay cultures may be plated onto LB agar plates, and then allowed to incubate overnight at a temperature of about 37° C. After incubating, colonies may be counted. Dose-response curves may be prepared to calculate EC50's.
The antibacterial activities of the free and acetylated peptides may be determined using K12 E. coli and a known assay protocol. Bacteria may be incubated in Luria Bertani broth at 37° C. until reaching an OD600 of ˜0.8-˜1.1. Cell density may be monitored using optical density at 600 nm. Cells were then diluted to a concentration of 10^6 CFU/ml in ˜10 mM sodium phosphate (pH ˜7.5), containing varied concentrations of peptide or acetylated peptide. Peptide concentration used in the assays may range from 0 μg/ml to ˜100 μg/ml with intermediate concentrations varied for each peptide in order to maximize the number of data points in or near the transition region.
Assay cultures may be incubated at 37° C. for about two hours. Afterwards, serial dilutions of each assay culture may be prepared and then plated in triplicate onto Luria Bertani broth plates. The plates may be incubated at 37° C. overnight (˜16 h). Colonies may be counted the following morning.
Bacterial survival at each peptide concentration may be calculated according to the ratio of the number of colonies on the plates corresponding to the peptide concentration and the average number of colonies observed for assay cultures lacking peptide. The peptide concentration required to kill ˜50% of tile viable E. coli in the assay cultures (EC50) may be determined by plotting percent survival as a function of the log of peptide concentration (log μg/ml) and fitting the data, using GraphPad Prism (GraphPad Software, Inc., San Diego, Calif.), to Equation (1), which describes a sigmoidal dose-response.
In Equation (1), S is percent survival, ST and SB represent the upper and lower survival boundaries, X is the log of the peptide concentration, and H is the Hill slope of the transition region.
In fitting the data for all peptides and acetylated peptides (except acetylated Pep-1 and acetylated Pep-3), ST and SB may be restricted to values≦100% and ≧0% respectively. For acetylated Pep-1 and acetylated Pep-3, the absence of data points defining the lower boundary necessitated that SB be set to 0% in order to fit the data to Equation (1) and provide an estimated EC50 for these peptides.

horse erythrocytes = format: cell-based
Procedure: Hemolytic activity may be assayed by, for example, incubating horse erythrocytes (e.g., Hemasource Inc. of Eugene, Oreg.). Varied peptide concentrations in phosphate buffered saline (e.g., Cellgro, produced by Mediatech, Inc. of Manassas, Va.) may be used for the incubation process. Hemolysis may be quantified by pelleting cells after incubation using centrifugation, and then measuring the absorbance of the supernatant at about 540 nm.
Hemolytic activities of the free and acetylated peptides may be determined using horse erythrocytes, in an assay adapted to a microtitre plate format. Cells may be prepared by centrifuging ˜1 ml of horse erythrocytes at 1620×g, and then resuspending the pelleted cells in ˜1 ml of 1× Dulbecco's phosphate-buffered saline (Dulbecco's PBS, Mediatech, Manassas, Va.). The cells may then be pelleted again. The process may be repeated (e.g., three more times). Following the final wash, the cells may be resuspended in ˜0.750 ml of PBS. Approximately two hundred microliters of washed erythrocyte suspension may then be diluted into ˜9800 μl of PBS to afford about 2% suspension. Aliquots of sterile water, peptide, and Dulbecco's PBS may then be combined in the wells of a 96 well microtitre plate so as to provide a gradient of peptide concentrations (0, ˜0.1, ˜1, ˜10, ˜100, and ˜1,000 μg/ml), to which the ˜2% erythrocyte may be added. […] An aliquot of supernatant (˜150 μl) from each well may then be transferred to a fresh microtitre plate, and the absorbance at ˜540 nm (heme) may be obtained for each solution. The percent hemolysis may be calculated based on the ratio of the absorption of supernatants from wells containing peptide and the absorption of supernatants from wells containing no peptide. In both cases, the recorded absorption may be adjusted for the background absorption of the plates.
Results of these assays appear in FIG. 21. […] Absorbance at 540 nm was used to monitor the release of hemoglobin by horse erythrocytes that have been incubated with varied concentrations of free peptide or acetylated peptide.

[1] = acetylated peptide, K12 E. coli, 10 mM sodium phosphate pH ~7.5, 2 h 37° C., 90% confidence range in parentheses, ‡ estimated values

| Substance | antimicrobial potency as percent of free Pep-1 (K12 E. coli; K12 E. coli, from EC50 values) [%] | Antimicrobial Activity (EC50), Free (K12 E. coli; K12, 2 h) | hemolytic activity (in words) (horse erythrocytes) | further results |
| --- | --- | --- | --- | --- |
| Ac-RGRK(Ac)SSRRK(Ac)K(Ac)-NH2 [acetylated Pep-3] |  |  |  | Antimicrobial Activity (EC50), Acetylated (K12 E. coli; [1]): ~70 µg/mL |
| Ac-RGRK(Ac)SSRRK(Ac)K(Ac)-OH [acetylated Pep-1] | ~5 |  |  | LC90, Acetylated Peptide (E. coli BL21(DE3)): 94.40 mg/L; decrease in potency relative to free Pep-1 (K12 E. coli; K12 E. coli, from EC50 values): sixteen |
| Ac-RGRRSSRRK(Ac)K(Ac)-NH2 [acetylated Pep-4] | ~50 |  |  | LC90, Acetylated Peptide (E. coli BL21(DE3)): 1.49 mg/L; Antimicrobial Activity (EC50), Acetylated (K12 E. coli; K12, 2 h): 4.9 (4.2-5.8) μg/ml |
| Ac-RGRRSSRRK(Ac)K(Ac)-OH [acetylated Pep-2] | ~25 |  |  | Antimicrobial Activity (EC50), Acetylated (K12 E. coli; K12, 2 h): ~8.1 µg/mL; Antimicrobial Activity (EC50), Acetylated (K12 E. coli; [1]): 8.1 (6.5-9.9) μg/ml |
| RGRKSSRRKK [Pep-1, RGRKSSRRKK (SEQ ID NO:2)] |  | 2.4 (2.2-2.7) μg/ml | some low-level hemolytic activity | LC90, Free Peptide (E. coli BL21(DE3)): 2.23 mg/L |
| RGRKSSRRKK-NH2 [Pep-3, RGRKSSRRKK-NH2 (SEQ ID NO:5)] |  | 1.2 (1.1-1.2) μg/ml |  |  |
| RGRRSSRRKK [Pep-2, RGRRSSRRKK (SEQ ID NO:3)] |  | 1.2 (1.1-1.3) μg/ml | some low-level hemolytic activity |  |
| RGRRSSRRKK-NH2 [Pep-4, RGRRSSRRKK-NH2 (SEQ ID NO:6)] |  |  | some low-level hemolytic activity | LC90, Free Peptide (E. coli BL21(DE3)): 0.15 mg/L |
